Structures can show the parent of a compound that is named as a salt.
What was measured:
Type in all cases: biochemical
[1] = molecular target: T1, human DPP IV (Homo sapiens, UniProt P27487); assay: DPP IV activity screening (Ala-Pro-AMC fluorescence)
T1 construct: extracellular fragment of protease DPP IV (aa29-766); made in house; host or cells: baculovirus expression system Bac-to-Bac
Method: (§1) Screening method: dipeptidyl peptidase IV (DPP IV) activity screening, dipeptidyl peptidase 7 (DPP 7), dipeptidyl peptidase 8 (DPP 8) activity screening, and dipeptidyl peptidase 9 (DPP 9) activity screening.
Instruments: Microplate Reader (PerkinElmer, USA).
The linear change of fluorescence value at 460 nm in unit time was dynamically measured and DPP IV activity was obtained by calculation.
(§2) Sample treatment: the sample was dissolved in DMSO and stored in low temperature. The concentration of DMSO in the final system was controlled so that the detected activity was not affected.
(§3) The activity of sample was tested under the selected single concentration from preliminary screening, for example, 20 μg/mL. […] The software for calculation was Graphpad Prism 4 and the model used for fitting was sigmoidal dose-response (variable slope). For most inhibitor screening models, the bottom and top of the fitting curve were set to 0 and 100.

[2] = molecular target: dipeptidyl peptidase 7 (DPP 7) (Homo sapiens, UniProt Q9UHL4); assay: DPP 7 activity screening; conditions: N.I. = No Inhibition
Method: as §1, §2, §3

[3] = molecular target: T2, human DPP 8 (Homo sapiens, UniProt Q6V1X1); assay: DPP 8 activity screening (Ala-Pro-AMC fluorescence); conditions: N.I. = No Inhibition
T2 construct: made in house; host or cells: insect cells, baculovirus Bac-to-Bac
Description: as §1
(§4) Materials: human DPP IV, obtained extracellular fragment of protease DPP IV (aa29-766), was expressed and purified by our laboratory using baculovirus expression system Bac-to-Bac (purchased from GIBCO company) in accordance with the conventional experimental technology; human DPP 8 was obtained in insect cells by our laboratory using baculovirus expression system Bac-to-Bac (purchased from GIBCO company) in accordance with the conventional experimental technology; Human DPP 9 was obtained in insect cells by our laboratory using baculovirus expression system Bac-to-Bac (purchased from GIBCO company) in accordance with the conventional experimental technology; and the substrate Ala-Pro-AMC was synthesized by GL Biochem (Shanghai) Ltd.
(§5) Principle of Activity test: DPP IV, DPP 8 and DPP 9 can specifically hydrolyze the substrate Ala-Pro-AMC to form product AMC, and AMC is excited by 355 nm of UV light to generate 460 nm of emission light. The linear change of fluorescence value at 460 nm in unit time was dynamically measured and DPP IV activity was obtained by calculation.
as §2, §3

[4] = molecular target: T3, Human DPP 9 (Homo sapiens, UniProt Q86TI2); assay: DPP 9 activity screening (Ala-Pro-AMC fluorescence); conditions: N.I. = No Inhibition
T3 construct: made in house; host or cells: insect cells, baculovirus Bac-to-Bac
Description: as §1, §4, §5, §2, §3

[5] = molecular target: T4, FAP (Homo sapiens, UniProt Q12884); assay: FAP inhibition (Table 1); conditions: N.I. = No Inhibition
T4 sequence (Q12884 1-760): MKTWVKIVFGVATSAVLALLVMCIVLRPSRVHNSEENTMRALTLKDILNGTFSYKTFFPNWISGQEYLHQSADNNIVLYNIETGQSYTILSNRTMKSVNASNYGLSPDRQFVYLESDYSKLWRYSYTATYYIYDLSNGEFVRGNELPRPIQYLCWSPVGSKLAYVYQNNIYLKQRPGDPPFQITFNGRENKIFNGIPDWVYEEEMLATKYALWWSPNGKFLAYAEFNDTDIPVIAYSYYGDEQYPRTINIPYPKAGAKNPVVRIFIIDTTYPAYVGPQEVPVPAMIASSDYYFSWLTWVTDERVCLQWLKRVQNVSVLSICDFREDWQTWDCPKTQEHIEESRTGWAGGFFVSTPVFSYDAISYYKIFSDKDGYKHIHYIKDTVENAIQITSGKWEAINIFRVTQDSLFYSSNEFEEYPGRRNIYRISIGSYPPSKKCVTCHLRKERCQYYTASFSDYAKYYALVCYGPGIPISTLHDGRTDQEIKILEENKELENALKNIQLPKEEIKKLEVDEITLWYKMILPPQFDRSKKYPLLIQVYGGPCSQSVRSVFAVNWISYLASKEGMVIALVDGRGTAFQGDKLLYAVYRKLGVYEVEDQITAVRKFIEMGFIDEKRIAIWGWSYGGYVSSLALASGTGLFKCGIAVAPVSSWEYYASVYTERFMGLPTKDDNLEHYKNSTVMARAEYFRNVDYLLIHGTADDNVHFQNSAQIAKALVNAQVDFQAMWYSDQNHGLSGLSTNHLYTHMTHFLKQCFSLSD

T1 sequence (P27487 29-766): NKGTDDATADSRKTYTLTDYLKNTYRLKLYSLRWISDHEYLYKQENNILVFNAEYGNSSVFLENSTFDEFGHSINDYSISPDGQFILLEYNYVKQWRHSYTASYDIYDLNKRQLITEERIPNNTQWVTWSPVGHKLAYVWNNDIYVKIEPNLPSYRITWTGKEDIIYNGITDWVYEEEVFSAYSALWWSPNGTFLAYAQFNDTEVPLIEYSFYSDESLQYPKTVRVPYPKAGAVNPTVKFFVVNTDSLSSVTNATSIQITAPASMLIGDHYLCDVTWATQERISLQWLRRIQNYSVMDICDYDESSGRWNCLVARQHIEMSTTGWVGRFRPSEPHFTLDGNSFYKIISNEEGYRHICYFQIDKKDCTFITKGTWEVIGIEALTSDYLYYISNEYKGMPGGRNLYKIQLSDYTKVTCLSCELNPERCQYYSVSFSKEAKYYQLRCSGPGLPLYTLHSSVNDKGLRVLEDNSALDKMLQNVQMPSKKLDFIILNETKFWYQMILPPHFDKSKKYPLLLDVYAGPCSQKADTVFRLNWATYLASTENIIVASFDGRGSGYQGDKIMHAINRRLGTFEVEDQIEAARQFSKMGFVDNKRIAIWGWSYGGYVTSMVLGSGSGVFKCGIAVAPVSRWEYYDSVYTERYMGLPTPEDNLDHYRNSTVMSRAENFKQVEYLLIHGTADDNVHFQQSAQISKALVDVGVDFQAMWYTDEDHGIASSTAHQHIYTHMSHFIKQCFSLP
T2 sequence (Q6V1X1 whole entry): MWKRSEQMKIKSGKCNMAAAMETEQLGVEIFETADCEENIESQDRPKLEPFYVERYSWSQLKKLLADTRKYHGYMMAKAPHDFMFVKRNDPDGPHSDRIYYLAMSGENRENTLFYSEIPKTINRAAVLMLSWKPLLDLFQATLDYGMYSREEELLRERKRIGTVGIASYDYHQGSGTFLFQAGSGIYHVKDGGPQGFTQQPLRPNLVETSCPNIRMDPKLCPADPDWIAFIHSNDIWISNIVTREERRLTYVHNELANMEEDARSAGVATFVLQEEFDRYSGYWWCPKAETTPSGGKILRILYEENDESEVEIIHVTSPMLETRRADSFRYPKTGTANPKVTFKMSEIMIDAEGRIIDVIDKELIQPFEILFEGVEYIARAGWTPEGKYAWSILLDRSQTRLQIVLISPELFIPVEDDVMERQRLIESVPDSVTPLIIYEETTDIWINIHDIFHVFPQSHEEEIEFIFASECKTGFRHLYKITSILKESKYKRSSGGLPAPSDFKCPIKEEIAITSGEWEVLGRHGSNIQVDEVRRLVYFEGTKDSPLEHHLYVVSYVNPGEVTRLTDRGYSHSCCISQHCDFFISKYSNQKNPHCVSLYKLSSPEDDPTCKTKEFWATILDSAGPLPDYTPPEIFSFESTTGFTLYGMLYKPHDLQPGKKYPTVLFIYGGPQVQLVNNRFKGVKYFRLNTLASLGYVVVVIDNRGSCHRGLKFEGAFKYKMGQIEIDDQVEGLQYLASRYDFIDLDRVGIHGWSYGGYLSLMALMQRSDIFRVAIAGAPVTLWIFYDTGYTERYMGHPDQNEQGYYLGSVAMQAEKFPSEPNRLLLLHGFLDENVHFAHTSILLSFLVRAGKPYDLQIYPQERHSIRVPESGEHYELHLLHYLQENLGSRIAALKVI
T3 sequence (Q86TI2 whole entry): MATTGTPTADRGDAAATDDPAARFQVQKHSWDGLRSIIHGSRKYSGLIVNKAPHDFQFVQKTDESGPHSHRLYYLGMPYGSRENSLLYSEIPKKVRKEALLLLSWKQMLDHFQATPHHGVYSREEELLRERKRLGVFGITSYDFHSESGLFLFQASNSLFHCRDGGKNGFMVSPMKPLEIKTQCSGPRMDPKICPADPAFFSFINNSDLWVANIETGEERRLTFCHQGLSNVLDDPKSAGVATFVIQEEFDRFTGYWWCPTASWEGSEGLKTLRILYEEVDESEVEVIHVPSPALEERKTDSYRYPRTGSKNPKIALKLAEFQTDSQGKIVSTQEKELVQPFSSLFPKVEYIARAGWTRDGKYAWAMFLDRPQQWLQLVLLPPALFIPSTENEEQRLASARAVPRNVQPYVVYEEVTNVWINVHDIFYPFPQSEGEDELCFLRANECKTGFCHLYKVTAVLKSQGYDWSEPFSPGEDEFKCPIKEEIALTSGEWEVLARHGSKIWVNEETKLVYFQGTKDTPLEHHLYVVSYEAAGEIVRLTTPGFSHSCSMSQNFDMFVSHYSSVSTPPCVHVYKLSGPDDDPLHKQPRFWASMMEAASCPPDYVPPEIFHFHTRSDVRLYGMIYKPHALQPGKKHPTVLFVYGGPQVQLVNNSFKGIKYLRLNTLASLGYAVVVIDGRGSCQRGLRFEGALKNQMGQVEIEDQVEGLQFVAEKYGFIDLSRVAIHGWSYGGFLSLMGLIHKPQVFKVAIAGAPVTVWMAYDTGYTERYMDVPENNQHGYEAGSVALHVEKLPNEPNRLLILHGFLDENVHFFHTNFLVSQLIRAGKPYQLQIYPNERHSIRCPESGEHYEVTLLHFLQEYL

Structure (SMILES) | IC50 [1] | DPP 7 IC50 [2] | IC50 [3] | DPP 9 IC50 [4] | IC50 [5] | IC50 [2] | IC50 [4] | DPP 8 IC50 [3] | FAP IC50 [5]
CC(C)CNC(=O)c1csc2c(=O)n(Cc3ccccc3C#N)c(N3CCC[C@@H](N)C3)nc12 [Compound 79, (R)-2-(3-aminopiperidin-1-yl)-3-(2-cyanobenzyl)-N-isobutyl-4-oxo-3,4-dihydrothieno[3,2-d]pyrimidine-7-carboxamide] | 0.0151 µM |  | 47 µM |  | 40.9 µM | 357 µM | 226 µM |  | 
N#Cc1ccccc1Cn1c(N2CCC[C@@H](N)C2)nc2c(C(=O)O)csc2c1=O [Compound 44, (R)-2-(3-aminopiperidin-1-yl)-3-(2-cyanobenzyl)-4-oxo-3,4-dihydrothieno-[3,2-d]pyrimidine-7-carboxylic acid hydrochloride] | 0.00976 µM |  |  | N.I. |  | 39.2 µM |  | N.I. | N.I.
CC(C)NC(=O)c1cc2nc(N3CCC[C@@H](N)C3)n(Cc3ccccc3C#N)c(=O)c2s1 [Compound 115, (R)-2-(3-aminopiperidin-1-yl)-3-(2-cyanobenzyl)-N-isopropyl-4-oxo-3,4-dihydrothieno[3,2-d]pyrimidine-6-carboxamide] | 0.0145 µM | N.I. | 181 µM |  | 146 µM |  | 167 µM |  | 
COCCCNC(=O)c1cc2nc(N3CCC[C@@H](N)C3)n(Cc3ccccc3C#N)c(=O)c2s1 [Compound 112, (R)-2-(3-aminopiperidin-1-yl)-3-(2-cyanobenzyl)-N-(3-methoxypropyl)-4-oxo-3,4-dihydrothieno[3,2-d]-pyrimidine-6-carboxamide] | 0.0238 µM | N.I. | 69.1 µM |  | 213 µM |  | 159 µM |  | 

Continued by falling IC50 [1], values first:

IC50 [1] | DPP 7 IC50 [2] | IC50 [3] | DPP 9 IC50 [4] | IC50 [5] | IC50 [2] | IC50 [4] | DPP 8 IC50 [3] | FAP IC50 [5] | Structure (SMILES)
0.0659 µM | N.I. | 18.1 µM | N.I. | 16.5 µM |  |  |  |  | N#Cc1ccccc1Cn1c(N2CCC[C@@H](N)C2)nc2c(C(=O)NCC3COC3)csc2c1=O [Compound 82, (R)-2-(3-aminopiperidin-1-yl)-3-(2-cyanobenzyl)-N-(oxetan-3-ylmethyl)-4-oxo-3,4-dihydrothieno[3,2-d]pyrimidine-7-carboxamide]
0.0538 µM | N.I. |  |  | 145 µM |  | 86.8 µM | N.I. |  | N#Cc1ccccc1Cn1c(N2CCC[C@@H](N)C2)nc2cc(C(=O)NCc3ccc(C(F)(F)F)cc3)sc2c1=O [Compound 103, (R)-2-(3-aminopiperidin-1-yl)-3-(2-cyanobenzyl)-4-oxo-N-(4-(trifluoromethyl)benzyl)-3,4-dihydrothieno[3,2-d]pyrimidine-6-carboxamide]
0.0358 µM | N.I. | 14.4 µM |  | 18.8 µM |  | 47.1 µM |  |  | COC(=O)[C@@H](NC(=O)c1csc2c(=O)n(Cc3ccccc3C#N)c(N3CCC[C@@H](N)C3)nc12)c1ccccc1 [Compound 66, (S)-methyl 2-(2-((R)-3-aminopiperidin-1-yl)-3-(2-cyanobenzyl)-4-oxo-3,4-dihydrothieno[3,2-d]pyrimidine-7-carboxamido)-2-phenylacetate]
0.0137 µM | N.I. | 24.9 µM |  | 28.1 µM |  | 53 µM |  |  | COC(=O)[C@H](Cc1ccccc1)NC(=O)c1csc2c(=O)n(Cc3ccccc3C#N)c(N3CCC[C@@H](N)C3)nc12 [Compound 67, (S)-methyl 2-(2-((R)-3-aminopiperidin-1-yl)-3-(2-cyanobenzyl)-4-oxo-3,4-dihydrothieno[3,2-d]pyrimidine-7-carboxamido)-3-phenylpropanoate]
0.0116 µM | N.I. |  | N.I. |  |  |  | N.I. | N.I. | CC(=O)OCc1cc2nc(N3CCC[C@@H](N)C3)n(Cc3ccccc3C#N)c(=O)c2s1 [Compound 96, (R)-(2-(3-aminopiperidin-1-yl)-3-(2-cyanobenzyl)-4-oxo-3,4-dihydrothieno-[3,2-d]pyrimidin-6-yl)methyl acetate]
